Data published in patent publication US9556228B2 (Universitaet Leipzig, priority 2011, dated 2017).
≈ marks a conversion by molar mass, not a printed value. Entries after “also recorded” stand apart in the source; their conditions may differ. Peptide text beside a SMILES is read from it. * marks the point of attachment. Orn(α-tetramethylguanidino) = CN(C)C(=N[C@@H](CCCN)C(=O)*)N(C)C

Key:
[1] = test system: S. aureus DSM 6247; type: cell-based, Staphylococcus aureus
Method: (§1) The minimum inhibitory concentrations (MIC) of the peptides were determined in a double assay of triplicates using a positive control sample (gentamycin) and a negative control sample (0.9% NaCl solution), according to a modified protocol from Wiegand et al. (Wiegand, 2008).
(§2) For this purpose, the peptides were dissolved in water and were diluted in a double dilution series with 1/8 MH (eight-fold diluted Mueller-Hinton-Medium—2.6 g/L, Merck) in sterile 96-well, plates (Greiner Bio-One GmbH) in twelve dilution steps from 128 μg/mL to 62.5 ng/mL. Overnight cultures were adjusted using ⅛ MHB to approximately 1.5×10^7 colony forming units per mL. Of these, 50 μL of peptide solution per well was mixed with 50 μL bacteria solution each to obtain an initial concentration of […] bacteria per well. After 20 hours of incubation at 37′C, the absorption was determined at 595 nm (microplate reader, Wallac Victor3, Perkin Elmer). The minimum inhibitory concentration was identified as the lowest peptide concentration at which no bacterial growth could be detected.
(§3) In the experiment, the antibacterial activity of the peptides according to the invention in relation to the following bacterial strains was analyzed: Pseudomonas aeruginosa PAO1 (wt strain), Pseudomonas aeruginosa DSM 9644, Staphylococcus aureus DSM 1104/ATCC 25923, Staphylococcus aureus ATCC 6247, Escherichia coli UB 1005 (F—, nalA37, metB1) and Escherichia coli ATCC25922.

[2] = test system: Escherichia coli ATCC25922; type: cell-based
[3] = test system: Pseudomonas aeruginosa DSM 9644; type: cell-based
Method: as §1
as §2, with “For this purpose, the peptides were dissolved in water and were diluted in a double dilution series with 1/8 MH (eight-fold diluted Mueller-Hinton-Medium—2.6 g/L, Merck) in sterile 96-well, plates (Greiner Bio-One GmbH) in twelve dilution steps from 128 μg/mL to 62.5 ng/mL.” left out
as §3

[4] = test system: E. coli DSM 1103; type: cell-based, Escherichia coli
Method: as §1, §2

[5] = test system: E. coli BL21AI; type: cell-based, Escherichia coli
[6] = test system: K. pneumoniae DSM 681; type: cell-based
Method: as §1
as §2, with “For this purpose, the peptides were dissolved in water and were diluted in a double dilution series with 1/8 MH (eight-fold diluted Mueller-Hinton-Medium—2.6 g/L, Merck) in sterile 96-well, plates (Greiner Bio-One GmbH) in twelve dilution steps from 128 μg/mL to 62.5 ng/mL.” left out

[7] = in vitro; conditions: for half-life: mouse
Method: The serum stability of selected apidaecin derivatives was also measured.

[8] = test system: S. aureus DSM 6247; type: cell-based, Staphylococcus aureus; remark: listed apart in the source
[9] = 100% mouse serum
[10] = cited from earlier work
[11] = test system: Pseudomonas aeruginosa (luminescent strain); assay: Substitution analysis of apidaecin 1b by peptide array, bioluminescence assay; type: cell-based; conditions: FIG. 1, luminescence, P. aeruginosa
Method: To optimize the antimicrobial activity of apidaecin 1b, a substitution analysis was carried out using this peptide (according to SEQ ID No. 2). The substitution library was synthesized by means of SPOT synthesis, and was analyzed for antibacterial activity against Pseudomonas aeruginosa by means of bioluminescence assay.
The SPOT synthesis of the peptide libraries was carried out on Whatman 50 filter paper (Sigma-Aldrich, Germany) measuring 19×29 cm by means of the Fmoc method and a SPOT synthesizer (Intavis AG, Germany) (according to Reineke U et al. 2001). The luminescence screening method that was used is based on the publication by Hilpert and Hancock (Hilpert, 2007). The peptides synthesized on the membrane were split off and the peptide spots were punched out of the peptide membrane using a hole punch, and were transferred to a 96-well microtiter plate (Corning, USA), after which 200 μL distilled water per well was added. […]
In the second step, the actual screening was performed. […] The incubation suspension (4 vol. % Log C in 100 mM Tris-HCl buffer (pH 7.3) with 40 mM sterile filtered glucose) was then distributed to 96-well plates (VWR, Germany) that are suitable for luminescence, and incubated with a concentration series of the peptide library for 4 hours at 37° C. After incubation, luminescence measurement was performed using a luminometer (Thermo, Finland).

[12] = 25% mouse serum

| Compound | MIC E. coli ATCC 25922 TSB [2] | MIC P. aeruginosa DSM 9644 TSB [3] | MIC E. coli BL21AI TSB [5] | MIC K. pneumoniae DSM 681 TSB [6] | MIC S. aureus DSM 6247 MHB [8] | other results |
| --- | --- | --- | --- | --- | --- | --- |
| CC[C@H](C)[C@H](NC(=O)[C@H](Cc1ccc(O)cc1)NC(=O)[C@@H](NC(=O)[C@@H]1CCCN1C(=O)[C@H](CCCNC(=N)N)NC(=O)[C@H](CC(N)=O)NC(=O)[C@H](Cc1c[nH]c2ccccc12)NC(=O)[C@H](CCCN)N=C(N(C)C)N(C)C)C(C)C)C(=O)N1CCC[C@H]1C(=O)N[C@@H](CCCNC(=N)N)C(=O)N1CCC[C@H]1C(=O)N[C@@H](CCCNC(=N)N)C(=O)N[C@@H](CCCNC(=N)N)C(=O)N1CCC[C@H]1C(=O)N[C@@H](Cc1c[nH]cn1)C(=O)N1CCC[C@H]1C(=O)N[C@@H](CCCNC(=N)N)C(=O)N[C@@H](CC(C)C)C(N)=O [compound 89] ({Orn(α-tetramethylguanidino)}-WNRPVYIPRPRRPHPRL-NH2; N-terminus and C-terminus assumed) | 16 µg/mL (≈ 6.61 µM) | 8 µg/mL (≈ 3.3 µM) | 8 µg/mL (≈ 3.3 µM) | >64 µg/mL | 2 µg/mL (≈ 0.826 µM) | MIC S. aureus DSM 6247 [1]: 8 to 16 µg/mL; MIC P. aeruginosa PAO DSM 9644 [3]: 4 µg/mL (≈ 1.65 µM); MIC E. coli DSM 1103 [4]: 8 µg/mL (≈ 3.3 µM); half-life ([7]; 25% mouse serum): 0.267 ± 0.0167 h |
| CC[C@H](C)[C@H](NC(=O)[C@H](Cc1ccc(O)cc1)NC(=O)[C@@H](NC(=O)[C@@H]1CCCN1C(=O)[C@H](CCCNC(=N)N)NC(=O)[C@H](CC(N)=O)NC(=O)[C@H](CC(N)=O)NC(=O)[C@H](CCCN)N=C(N(C)C)N(C)C)C(C)C)C(=O)N1CCC[C@H]1C(=O)N[C@@H](CCCNC(=N)N)C(=O)N1CCC[C@H]1C(=O)N[C@@H](CCCNC(=N)N)C(=O)N1CCC[C@H]1C(=O)N1CCC[C@H]1C(=O)N[C@@H](Cc1c[nH]cn1)C(=O)N1CCC[C@H]1C(=O)N[C@@H](CCCNC(=N)N)C(=O)N[C@@H](CC(C)C)C(N)=O [compound 92] ({Orn(α-tetramethylguanidino)}-NNRPVYIPRPRPPHPRL-NH2; N-terminus and C-terminus assumed) | 2 µg/mL (≈ 0.873 µM) | 8 µg/mL (≈ 3.49 µM) | 1 µg/mL (≈ 0.437 µM) | 2 µg/mL (≈ 0.873 µM) | 8 µg/mL (≈ 3.49 µM) | half-life ([7]; 25% mouse serum): 0.25 ± 0.0167 h |
| gu-OWNRPVYIPRPRPPHPRL-OH |  |  |  |  |  | fragment found [9]: gu-O1-R17 |
| CC[C@H](C)[C@H](NC(=O)[C@H](Cc1ccc(O)cc1)NC(=O)[C@@H](NC(=O)[C@@H]1CCCN1C(=O)[C@H](CCCNC(=N)N)NC(=O)[C@H](CC(N)=O)NC(=O)[C@H](CC(N)=O)NC(=O)[C@H](CCCN)N=C(N(C)C)N(C)C)C(C)C)C(=O)N1CCC[C@H]1C(=O)N[C@@H](CCCNC(=N)N)C(=O)N1CCC[C@H]1C(=O)N[C@@H](CCCNC(=N)N)C(=O)N1CCC[C@H]1C(=O)N1CCC[C@H]1C(=O)N[C@@H](Cc1c[nH]cn1)C(=O)N1CCC[C@H]1C(=O)N[C@@H](CCCNC(=N)N)C(=O)N[C@@H](CC(C)C)C(=O)O [compound 93] ({Orn(α-tetramethylguanidino)}-NNRPVYIPRPRPPHPRL-OH; N-terminus and C-terminus assumed) | 4 µg/mL (≈ 1.75 µM) | 16 µg/mL (≈ 6.98 µM) | 1 µg/mL (≈ 0.436 µM) | 2 µg/mL (≈ 0.873 µM) | 16 to 32 µg/mL | half-life ([7]; 100% mouse serum): 5.83 ± 0.567 h |
| CC[C@H](C)[C@H](NC(=O)[C@H](Cc1ccc(O)cc1)NC(=O)[C@@H](NC(=O)[C@@H]1CCCN1C(=O)[C@H](CCCNC(=N)N)NC(=O)[C@H](CC(N)=O)NC(=O)[C@H](Cc1c[nH]c2ccccc12)NC(=O)[C@H](CCCN)N=C(N(C)C)N(C)C)C(C)C)C(=O)N1CCC[C@H]1C(=O)N[C@@H](CCCNC(=N)N)C(=O)N1CCC[C@H]1C(=O)N[C@@H](CCCNC(=N)N)C(=O)N1CCC[C@H]1C(=O)N1CCC[C@H]1C(=O)N[C@@H](Cc1c[nH]cn1)C(=O)N1CCC[C@H]1C(=O)N[C@@H](CCCNC(=N)N)C(=O)N[C@@H](CC(C)C)C(=O)O [compound 85] ({Orn(α-tetramethylguanidino)}-WNRPVYIPRPRPPHPRL-OH; N-terminus and C-terminus assumed) | 4 µg/mL (≈ 1.69 µM) | 8 to 16 µg/mL | 2 µg/mL (≈ 0.846 µM) | 2 µg/mL (≈ 0.846 µM) | 4 µg/mL (≈ 1.69 µM) | MIC S. aureus DSM 6247 [1]: 16 µg/mL (≈ 6.77 µM); MIC P. aeruginosa PAO DSM 9644 [3]: 16 µg/mL (≈ 6.77 µM); MIC E. coli DSM 1103 [4]: 4 µg/mL (≈ 1.69 µM); half-life ([7]; 100% mouse serum): 3.95 ± 0.25 h |
| gu-OWNRPVYIPRPRRPHPRL-OH |  |  |  |  |  | fragment found [9]: gu-O1-R12 (Api341 analogue) |
| CC[C@H](C)[C@H](NC(=O)[C@@H]1CCCN1C(=O)[C@H](CCCNC(=N)N)NC(=O)[C@@H]1CCCN1C(=O)[C@H](Cc1cnc[nH]1)NC(=O)[C@H](CO)NC(=O)[C@@H](NC(=O)[C@@H]1CCCN1C(=O)[C@H](CCCNC(=N)N)NC(=O)[C@@H]1CCCN1C(=O)[C@H](CO)NC(=O)[C@H](Cc1ccc(O)cc1)NC(=O)[C@@H]1CCCN1C(=O)[C@H](CCCNC(=N)N)NC(=O)[C@@H]1CCCN1C(=O)[C@H](CCCCN)NC(=O)CN)[C@@H](C)O)C(=O)N[C@@H](CCCNC(=N)N)C(=O)N[C@H](C(=O)O)C(C)C [drosocin] (H-GKPRPYSPRPTSHPRPIRV-OH) |  |  |  |  |  | breakdown in mammalian serum (25%) [10]: broken down within one hour |
| native apidaecin sequence that is substituted at position 1 with cysteine: apidaecin 1b (SEQ ID No. 2) substituted at position 1 with cysteine, from the SPOT substitution library (CNNRPVYIPQPRPPHPRL; listed as Apis mellifera) |  |  |  |  |  | substitution analysis value (measure of the activity; less than 1 = enhancement relative to native apidaecin) [11]: 0.55 |
| gu-ONNRPVYIPRPRPPHPRL-OH |  |  |  |  |  | fragment found [9]: gu-O1-R17 |
| gu-ONNRPVYIPRPRPPHPRL-NH2 |  |  |  |  |  | fragment found [12]: gu-O1-R17 |
| CC[C@H](C)[C@H](NC(=O)[C@H](Cc1ccc(O)cc1)NC(=O)[C@@H](NC(=O)[C@@H]1CCCN1C(=O)[C@H](CCCNC(=N)N)NC(=O)[C@H](CC(N)=O)NC(=O)[C@H](Cc1c[nH]c2ccccc12)NC(=O)[C@H](CCCN)N=C(N(C)C)N(C)C)C(C)C)C(=O)N1CCC[C@H]1C(=O)N[C@@H](CCCNC(=N)N)C(=O)N1CCC[C@H]1C(=O)N[C@@H](CCCNC(=N)N)C(=O)N[C@@H](CCCNC(=N)N)C(=O)N1CCC[C@H]1C(=O)N[C@@H](Cc1c[nH]cn1)C(=O)N1CCC[C@H]1C(=O)N[C@@H](CCCNC(=N)N)C(=O)N[C@@H](CC(C)C)C(=O)O [compound 87] ({Orn(α-tetramethylguanidino)}-WNRPVYIPRPRRPHPRL-OH; N-terminus and C-terminus assumed) | 8 µg/mL (≈ 3.3 µM) | 8 µg/mL (≈ 3.3 µM) | 8 µg/mL (≈ 3.3 µM) | 4 to 8 µg/mL | 4 µg/mL (≈ 1.65 µM) | MIC S. aureus DSM 6247 [1]: 16 µg/mL (≈ 6.6 µM); MIC P. aeruginosa PAO DSM 9644 [3]: 8 µg/mL (≈ 3.3 µM); MIC E. coli DSM 1103 [4]: 8 µg/mL (≈ 3.3 µM); peptide remaining, printed in the column t1/2 100% serum ([7]; 100% mouse serum, after 2 hours): 0% after |
| gu-OWNRPVYIPRPRRPHPRL-NH2 |  |  |  |  |  | fragment found [12]: gu-O1-R17; also recorded: gu-O1-R12 |
